Measured values: US7625928B2, “Nitroxide radioprotector formulations and methods of use” (priority 2002, dated 2009)

Experiment: In vitro percutaneous absorption of Tempol after multiple applications of Formulation V, Franz static diffusion cells, 30-minute exposures (Example II)
Type: in vitro ADME, human
Settings: test 3, three applications, result in words
Experimental: The skin was wiped with two dry cotton swabs after each application. Upon completion of the final application and skin wiping, the stratum corneum was removed from the skin. […] Franz static diffusion cells (15 mm diameter orifice, O-ring joint, Crown Bio Scientific, Clinton, N.J.) were mounted on 9-cell manifolds and maintained at a constant temperature of 32° C. by use of re-circulating water baths. […] Each diffusion cell was assembled by placing the excised human abdominal skin from a single donor dermal-side down and then a Teflon® O-ring (which rested in the groove of the donor side, top half, of the diffusion cell. The donor side (top half) of the diffusion cell was then placed on top of the O-ring resting on the skin and held in place by use of a pinch clamp. The joint between the donor and receptor compartments of each cell was wrapped with Parafilm® to prevent evaporation of the receptor solution. […] Air bubbles were dispelled from under the skin. […] The formulation was applied in an alternating fashion to 6 diffusion cells at 0.18 mL of formulation per cell. The diffusion cell sampling port was sealed with […] ® to prevent evaporation. […] If appropriate, the cell was re-dosed with test formulation after removal of the previous dose using two cotton swabs wiped across the skin surface. […]

CC1(C)CC(O)CC(C)(C)N1[O] [Tempol, 4-hydroxy-2,2,6,6-tetramethylpiperidine-1-oxyl]
third application levels versus levels in the second time point: twice as high
